Drawing on patent US9650380B2, “Difluoromethylene compound” (SATO PHARMACEUTICAL CO., LTD., priority 2012, dated 2017), this text covers IC50 for five compounds.

pIC50: −log10 of the molar value.

The test addresses T1, human URAT1 (Homo sapiens, UniProt Q96S37).
T1 construct: Human URAT1 full-length cDNA was introduced to an expression vector pcDNA5/FRT/V5-His TOPO; expressed in transfected cells
T1 sequence (Q96S37 1-553): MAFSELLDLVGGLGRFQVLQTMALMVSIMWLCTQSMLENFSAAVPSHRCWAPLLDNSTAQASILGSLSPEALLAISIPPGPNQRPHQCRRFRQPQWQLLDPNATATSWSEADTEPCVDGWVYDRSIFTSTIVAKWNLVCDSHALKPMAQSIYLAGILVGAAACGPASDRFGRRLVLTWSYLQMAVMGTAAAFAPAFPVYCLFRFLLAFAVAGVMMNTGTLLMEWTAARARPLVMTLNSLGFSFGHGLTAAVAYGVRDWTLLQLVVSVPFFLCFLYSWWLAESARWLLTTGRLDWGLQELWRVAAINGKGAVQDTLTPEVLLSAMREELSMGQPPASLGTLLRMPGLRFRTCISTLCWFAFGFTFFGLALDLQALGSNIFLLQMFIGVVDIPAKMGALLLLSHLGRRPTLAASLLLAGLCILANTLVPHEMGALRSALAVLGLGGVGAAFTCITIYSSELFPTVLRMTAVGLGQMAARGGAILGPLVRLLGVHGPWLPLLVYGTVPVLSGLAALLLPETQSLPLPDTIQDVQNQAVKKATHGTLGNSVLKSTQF
The test can be described thus: Test for uric acid transport inhibition using human URAT1 expression cells. The conditions noted are these: human URAT1 stable expression CHO cells; 14C-labeled uric acid 38 μM final; incorporation 5 minutes at room temperature; 100% window defined with benzbromarone 100 μM; read-out: URAT1 inhibitory activity (IC50). In kind it is cell-based. The method, then:
In this Example, it was evaluated whether the Example compound and the Reference example compound mentioned below has the URAT1 inhibitory activity.
Human URAT1 full-length cDNA was introduced to an expression vector pcDNA5/FRT/V5-His TOPO (registered trademark) (Invitrogen Corporation). The obtained expression plasmid was introduced to Chinese hamster ovary cell (hereinafter referred to as the CHO cell) by the liposome method using Lipofectamine LTX (Invitrogen) and cultured in a selection medium including hygromycin, whereby to prepare human URAT1 stable expression cell.
The human URAT1 expression CHO cell were cultured using D-MEM/F-12 (1:1) mixed medium including 10% bovine fatal serum and hygromycin at 37° C. in the presence of 5% CO2. The cells were seeded onto a 96-well plate (Corning Incorporated) at 0.8×10^5 cells/well, and after 24 hours, the test for uric acid transport inhibition below was performed.
The medium was removed by aspiration, and then the cells were washed once with an assay buffer including 125 mM of sodium gluconate, 4.8 mM of potassium gluconate, 1.2 mM of potassium dihydrogen phosphate, 1.2 mM of magnesium sulfate, 1.3 mM of calcium gluconate and 5.6 mM of glucose, 50 μL assay buffer including the test compound in various concentrations was added, and further 50 μL assay buffer including a radioactive ligand (uric acid labeled with ^14C; 38 μM final concentration) was added, and incorporation reaction was performed at room temperature for 5 minutes. Immediately after the completion of the reaction, the reaction mixture was washed twice with 100 μL ice-cold assay buffer, and 100 μL of 0.1N sodium hydroxide was added. The reaction mixture was stirred to lyse the cells, and 4 mL of Hionic-Fluor (Packard BioScience CO.) was added, and then the radioactivity was measured with a liquid scintillation counter (Beckman Coulter, Inc. and Packard BioScience CO).
The radioactivitiy when each concentration of the test compound was added (uric acid incorporation activity, %) was calculated in which the difference of the radioactivity when the test compound was not added (DMSO added) and the radioactivity when a positive control compound, benzbromarone (a known URAT1 inhibitor) was added in 100 μM, was taken as 100%, and the concentration of the test compound when the uric acid incorporation activity was inhibited to 50% (IC50) was obtained.
The pIC50 is the negative decadic logarithm of the IC50, by convention in mol/L. On to `Cc1nn(Cc2c(Cl)cccc2C(N)=O)c2cc(C(F)(F)c3nnn[nH]3)ccc12` [example 67, 3-chloro-2-{6-[difluoro(1H-tetrazol-5-yl)methyl]-3-methyl-1H-indazol-1-ylmethyl}benzamide], for which the negative logarithm of the IC50 (pIC50) is 7.34. Take `Cc1nn(Cc2c(C#N)cccc2CO)c2cc(C(F)(F)c3nnn[nH]3)ccc12` [example 104]: the negative logarithm of the IC50 (pIC50) is 7.52. Consider `Cc1cccc(C(N)=O)c1Cn1nc(C)c2ccc(C(F)(F)c3nnn[nH]3)nc21` [example 110, 2-{6-[difluoro(1H-tetrazol-5-yl)methyl]-3-methyl-1H-pyrazolo[3,4-b]pyridin-1-ylmethyl}-3-methylbenzamide], for which the negative logarithm of the IC50 (pIC50) was 7.36.

As to `Cc1nn(Cc2c(C(N)=O)cccc2C2CC2)c2nc(C(F)(F)c3nnn[nH]3)ccc12` [example 116, 3-cyclopropyl-2-{6-[difluoro(1H-tetrazol-5-yl)methyl]-3-methyl-1H-pyrazolo[3,4-b]pyridin-1-ylmethyl}benzamide], the pIC50 is 7.44. For `Cc1cccc(C#N)c1Cn1nc(CO)c2ccc(C(F)(F)C(=O)O)cc21` [example 121, [1-(2-cyano-6-methylbenzyl)-3-hydroxymethyl-1H-indazol-6-yl]difluoroacetic acid], the pIC50 is 6.57.
